# Assay results as given in patent publication US12115182B2, “Adenosine A2A agonists for the treatment of cytokine storm syndrome” (priority 2021, dated 2024).
# “Also recorded” adds a separate entry of the source.
# Tests used:
# [1] = test system: circulating iNKT cells; assay: Flow cytometry of CD69 on circulating iNKT cells of COVID-19 patients during regadenoson infusion; format: in vivo, human
# [2] = test system: lung transplant recipients; assay: Regadenoson infusion in lung transplant recipients: clinical outcomes, hemodynamics, safety; format: in vivo
# Procedure: The rational for dose selection was published in our previous publication (LAU et al., J Heart Lung Transplant, (2020), 39:563-570. We enrolled 4 additional lung transplantation patients that were treated with regadenoson at 1.44 ug/kg/hour for 12 hours. Our previous publication, infusion of regadenoson (1.44 ug/kg/hour for 12 hours) was safe in 10 lung transplantation patients. In the lung transplantation population, the median peak plasma levels of regadenoson infused were 1.68 ng/ml (range 1.2 to 1.9 ng/ml). Based on this preliminary result, we modified our protocol to a high dose infusion at the 2.88 ug/kg/hour for 12 hours in the last three lung transplantation recipients. FDA, NIH/NHLBI designated DSMB and institutional IRB approved our modification. The regadenoson infusion started at the time of skin incision, continued throughout the transplant procedure and into the immediate postoperative period for a total duration of 12 hours. Enrollment of bilateral lung transplant control patients
# Primary end-points included dose-limiting toxicities and 30-day mortality. Secondary outcomes included PGD scores evaluated at 24, 48, and 72 hours, ICU length of stay, hospital length of stay, need for post-transplant extracorporeal membrane oxygenation, duration of mechanical ventilation post-operatively, and 12-month survival. Clinical parameters including blood pressure, heart rate, mean arterial pressure, pulmonary arterial pressure, were monitored and collected. Continuous variables are listed as mean and standard deviation, whereas categorical variables are presented as counts.
# Statistical differences of cytokine/chemokines, heart rates and blood pressures between groups were determined by two-way ANOVA followed by Tukey's multiple comparison test (GraphPad Prism 9.0). The PGD scores were analyzed by chi-squared test. The intubation times and hospital LOS, ICU LOS were analyzed by ANOVA of log and Kruskal-Wallis. Data was reported as means±SD. P value equal or less than 0.05 was considered significant.
# [3] = Plasma levels of regadenoson in lung transplant recipients (LC-MS/MS); format: in vivo, human
# Procedure: The peripheral blood samples for regadenoson measurement were collected at the following timepoints: 1) Prior to 1st lung reperfusion; 2) 1 hour post 1st lung perfusion; 3) 6 hours post infusion start; 4) 12 hours post infusion start; 5) 24 hours post infusion start. The blood samples were centrifuged, and the plasma samples were collected and stored at −80° C. The levels of regadenoson were determined via liquid chromatography-mass spectrometry with an improved d protocol based on our previous publication (LAU et al., J Heart Lung Transplant, (2020), 39:563-570) at The Mass Spectrometry Center at the School of Pharmacy, University of Maryland, Baltimore (detailed in supplemental methods).
# Chemicals and Reagents. Regadenoson (purity 99.83%) was purchased from Selleckchem (Houston, TX, USA) and Regadenoson-d3 ((purity 99.68%) used as internal standard (IS) was obtained from Toronto Research Chemicals, (North York, ON, CT). Optima LC/MS grade water (H2O), methanol, and formic acid (FA) were purchased from Fisher Scientific (Pittsburgh, PA, USA).
# Calibration Standards. 1 mg/ml stock solutions of Regadenoson and Regadenoson-d3 were prepared in Dimethyl sulfoxide (DMSO) and further working solutions to spike in plasma were prepared in methanol and water (70:30, v/v). Calibration standards (STD) in plasma ranged from 0.05 ng/ml to 50 ng/ml (8 points: 0.05, 0.1, 1, 5, 20, 30, 40, and 50 ng/ml). Quality control (QC) samples at 3 concentration levels (0.15 ng/ml, LQC; 25 ng/ml, MQC; and 45 ng/ml, HQC) were also prepared in plasma. Internal standard solution (Regadenoson-d3; 250 ng/ml) was prepared in methanol and water (70:30, v/v).
# Sample Preparation. 50 μL of plasma sample (STD/QC/test sample) was added into a 2 ml centrifuge tube containing 20 μL of IS solution (250 ng/ml) and mixed well. Next, 500 μL of acetonitrile was added, shaken for 3 min at 2100 rpm, and centrifuged for 10 min at 15000 rpm. 400 μL of supernatant was transferred to glass tube and dried under a steady stream of nitrogen at 35° C. The sample was re-suspended in 100 μL of 0.1% formic acid in H2O: 0.1% formic acid in methanol (1:1 v/v) and injected (3 μl) into LC-MS/MS system.
# Liquid Chromatography Tandem Mass Spectrometry (LC-MS/MS). LC-MS/MS analysis was performed on a TSO Altis Triple Stage Quadrupole Mass Spectrometer coupled to an Ultimate 3000 RS Liquid Chromatogram system (Thermo Scientific, San Jose, CA). The LC separation was performed on a BEH C18 column (2.1×50 mm, 1.7 μm) (Waters Corporations, Milford, MA) operated at 30° C. Mobile phase solvent A and B consisted of 0.1% FA in H2O and 0.1% FA in methanol, respectively. The gradient program started with 35% B; followed by a linear gradient to 50% Bin 0.7 min; maintained 50% B until 1.5 min; followed by a linear gradient back to 35% B in 2 min and maintained until 3 min. The flow rate was set at 0.22 ml/min. The retention time of Regadenoson and the IS was 1.09 min, and the total run time was 3 min.
# Detection was performed in the positive-ion mode using electrospray ionization (ESI). Source parameters were as follows: spray voltage, 3500; Ion transfer tube temperature, 350; vaporizer temperature, 300; sheath gas pressure, 50; auxiliary gas pressure, 10; and sweet gas, 1. The compound parameters: collision energy (CE), and RF lens were 35 and 77 V, respectively for Regadenoson and the IS. Selected reaction monitoring (SRM) was used for mass detection with the following transitions: Regadenoson (m/z 391.1-259.2; quant) and (m/z 391.1-228.1; qual), Regadenoson-d3 (m/z 394.0-262.2; quant) and (m/z 394.0-228.2; qual). Data collection and analysis was performed by Xcalibur V 2.1 (Thermo Scientific, San Jose, CA).
# Analytical parameters: The linear range is 0.05-50 ng/mL in human plasma. Samples that exceeded the upper limit of quantification were diluted 2 or 4 fold and reinjected.
# [4] = test system: MHS cells; assay: RAGE shedding in alveolar macrophages (MHS): Western blot of sRAGE, immunofluorescence of RAGE; format: cell-based, mouse; settings: PMA-treated MHS cells; GM6001 2 nM, regadenoson 100 nM, ATL146e 10 nM
# [5] = day 7, Alzet minipump 80 μg/ml in PBS
smiles,measurement,setting,value
CNC(=O)c1cnn(-c2nc(N)c3ncn([C@@H]4O[C@H](CO)[C@@H](O)[C@H]4O)c3n2)c1 [Regadenoson],expression of activation marker CD69 on circulating iNKT cells,[1]; 4 hours into the maintenance dose,significantly reduced
same,expression of activation marker CD69 on circulating iNKT cells,[1]; after the 30 min loading dose,significantly reduced
same,reduction of the fraction of circulating iNKT cells that are CD69+,[1]; within 30 minutes,50%
same,PGD scores at 24 hours post transplantation,"[2]; 1.44 ug/kg/h vs control patients, p=0.024",significantly improved
same,drug related serious adverse events or dose limiting toxicities,[2]; 14 low dose-treated (1.44 ug/kg/h) and 3 high dose-treated (2.88 ug/kg/h) recipients,no drug related serious adverse events or dose limiting toxicities were observed
same,"PGD scores at 24 hours, 48 and 72 hours",[2]; both 1.44 and 2.88 ug/kg/h groups vs control patients,also improved when compared with control patients but did not reach significance
same,"blood pressure, heart rate, mean arterial pressure and pulmonary arterial pressure","[2]; during regadenoson infusion for 12 hours, P>0.05",did not significantly alter
same,seizure,"[2]; one subject, may not directly relate to regadenoson infusion",A seizure was observed at the 36 hours post regadenoson infusion in one of the subjects
same,hospital length of stay (LOS) and ICU LOS,[2]; vs control patients,"reduced, but not significantly altered"
same,intubation time,[2]; vs control patients,trended to decrease
same,median peak plasma levels of regadenoson,"[3]; 1.44 ug/kg/hour for 12 hours, preliminary result before dose alteration",1.68 ng/mL
same,levels of regadenoson in blood,[3]; after 24 hours post regadenoson infusion,minimal
same,time of peak drug level post infusion start,"[3]; high dose group, 2.88 ug/kg/hr for 12 hours",12 h
same,median peak plasma levels of regadenoson,"[3]; high dose, 2.88 ug/kg/hr",14.34 ng/mL
same,time of peak drug level post infusion start,"[3]; low dose group, 1.44 ug/kg/hr for 12 hours",6 h
same,median peak plasma levels of regadenoson,"[3]; low dose, 1.44 ug/kg/hr",1.30 ng/mL
same,PMA-induced shedding of cell membrane-anchored RAGE,[4],suppressed the shedding of RAGE; also recorded: partially inhibited
same,mean +/-SEM plasma level for Regadenoson,[5],7.6 ± 1.3 ng/mL
